Results from patent US12655413B2, “Fragmented GRS polypeptide and variant thereof, and use thereof” (CUREBIO THERAPEUTICS, priority 2018, dated 2026).
pKd: −log10 of the molar value. Residues, ends and D or L forms follow the SMILES beside them.

Experiments:
[1] = tested on: SN12C (CDH6 positive renal cancer cell); assay: Comparison of in vitro cancer cell apoptotic activity among the polypeptides (FIG. 2); format: cell-based; settings: 1 μg or 2 μg of polypeptide
Protocol: The polypeptide fragments were assayed for cancer cell apoptotic activity. Concrete experiment procedures were as follows: H460, HCT116, MCF7, HeLa, SN12C or RENCA cells were each seeded at a density 5,000 cells/mL into 96-well plates (Corning, New York, USA) and incubated for 24 hours with 100 nM of each of the polypeptide fragments and the full-length GRS protein. Then, each sample was treated for 2 hours with 10 μl of CCK8 reagent (Dojindo Molecular Technologies Inc. Kumamoto, Japan) before absorbance was read at 570 nm on a microplate reader (TECAN, Mannedorf, Swiss).
Comparison was made of cancer cell apoptotic activity among the polypeptide constructs of Examples 1-1 and 1-2. Each polypeptide was used in an amount of 1 μg or 2 μg, and the assay was performed in the same manner as in Example 1-1.

[2] = tested on: B16F10 cells; assay: In vivo tumor targeting of Alexa fluor 488-labeled polypeptides, intravenous injection; parameters: species or system C57BL/6 mice; settings: 1 mg/kg intravenously, tumors excised after 24 hours; compared to full-length GRS protein and GRS-DP; FIGS. 8a, 8b
Text: FIG. 8a is an image of tumors excised from test groups, showing comparison of abilities of GRS, GRS-DP, and representative fragments derived therefrom (GRS-DP-B or GRS-DP-A cyclic) to specifically target cancer cells in terms of fluorescence labeling intensity. In the experiment, B16F10 cells were subcutaneously injected into C57BL/6 mice and then grown for 14 days. On day 14, PBS or fluorescence-labeled test materials were each intravenously injected at a dose of 1 MPK, and tumors were excised 24 hours after injection.
Thus, the ability of GRS-DP-B to target tumors in practice was evaluated when it was administered in a systemic manner. For this, GRS-DP-B, GRS-DP-A cyclic, GRS-DP, and full-length GRS protein were assayed for tumor targeting ability in vivo. Briefly, B16F10 cells (5×10^6 cells) were subcutaneously injected into the right flank of each of C57BL/6 mice 8 weeks old. On day 14, full-length GRS and the polypeptides of the present invention, each labeled with Alexa fluor 488, were intravenously injected at a dose of 1 mg/kg mouse weight, and the tumors were excised after 24 hours. Fluorescent signals of tumors were measured using IVIS Lumina Series III (PerkinElmer, Massachusetts, USA) to analyze regions of interest (ROI)

[3] = tested on: SN12C (CDH6 positive) cells; assay: In vivo anticancer activity, intravenous injection, SN12C xenograft; parameters: species or system BALB/c nude mice; settings: 5 MPK intravenously on day 5 and 7; monitored 21 days; FIGS. 7a to 7c
Text: FIG. 7a is an image of tumors excised from experimental animals in each test group sacrificed on day 21 after xenotransplantation of tumor cells, showing results of evaluating the ability of GRS, GRS-DP, and representative fragments derived therefrom (GRS-DP-B, or GRS-DP-A cyclic) to induce tumor regression in vivo by intravenous injection. Briefly, SN12C (CDH6 positive) cells were subcutaneously injected into BALB/c nude mice and then grown for 5 days to an average tumor size of 100 mm^3. On day 5 and 7, PBS or test materials were each intravenously injected at a dose of 5 MPK (n=5 animals/group). Tumor volumes were calculated according to “maximum diameter×minimum diameter^2×0.52”.
Experimental procedures of an assay for in vivo anticancer activity are schematically represented in FIG. 6a. Briefly, 1×10^7 SN12C (CDH6 positive) cells were subcutaneously injected to the right flank of female BALB/c 8 weeks old (Dooyeol Biotech Co. Ltd, Seocho-gu, Seoul) and then grown for 5 days to an average tumor size of 100 mm^3. On day 5 and 7, PBS (control) or test materials (including a control) were each intravenously injected at a dose of 5 MPK (n=5 animals/group). After monitoring the tumors for 21 days, the mice were sacrificed on day 21 and the tumors were excised. Tumor volumes were calculated according to “maximum diameter×minimum diameter^2×0.52”.

[4] = tested on: SN12C (CDH6 positive) cells; assay: In vivo anticancer activity, intra-tumor injection, SN12C xenograft; parameters: species or system BALB/c nude mice; settings: 20 μg into tumors on day 5 and 7; monitored 21 days; FIGS. 6b to 6d
Protocol: FIG. 6a is an experimental scheme for evaluating the ability of GRS, GRS-DP, and representative fragments derived therefrom (GRS-DP-B, or GRS-DP-A cyclic) to induce tumor regression in vivo by intra-tumor injection. Briefly, SN12C (CDH6 positive) cells were subcutaneously injected into BALB/c nude mice and then grown for 5 days to an average tumor size of 100 mm^3. On day 5 and 7, PBS or test materials were each injected at a dose of 20 μg into tumors (n=5 animals/group). Tumor volumes were calculated according to “maximum diameter×minimum diameter^2×0.52”.
Experimental procedures of an assay for in vivo anticancer activity are schematically represented in FIG. 6a. Briefly, 1×10^7 SN12C (CDH6 positive) cells were subcutaneously injected to the right flank of female BALB/c 8 weeks old (Dooyeol Biotech Co. Ltd, Seocho-gu, Seoul) and then grown for 5 days to an average tumor size of 100 mm^3. On day 5 and 7, PBS (control) or test materials (including a control) were each injected at a dose of 20 μg into tumors (n=5 animals/group). After monitoring the tumors for 21 days, the mice were sacrificed on day 21 and the tumors were excised. Tumor volumes were calculated according to “maximum diameter×minimum diameter^2×0.52”.

[5] = tested on: pERK in SN12C (CDH6 positive) cells or RENCA (CDH6 negative) cells; assay: Dephosphorylation of pERK by western blotting; format: cell-based; settings: 100 nM or 200 nM, 1 hour; SN12C vs RENCA; FIGS. 5b, 5c
Protocol: To examine whether the polypeptides of the present invention dephosphorylates pERK by binding to CDH6 or not, SN12C (CDH6 positive) cells or RENCA (CDH6 negative) cells were treated with the polypeptides of the present invention (typically, 100 nM or 200 nM of GRS-DP) and dephosphorylation of pERK was analyzed. In this regard, full-length GRS 100 nM was used as a positive control. In brief, the cells were […] for 1 hour with full-length GRS or GRS-DP, washed twice with chilled PBS, and lysed in a lysis buffer (150 mM NaCl, 2 mM EDTA, 1% Triton X-100, 1% sodium deoxycholate, 10 mM NaF, 1 mM orthovandadate, 10% glycerol, protease cocktail). Thirty micrograms of each protein were run on SDS/PAGE, followed by western blotting with an ERK antibody purchased from Cell Signaling Technology (Danvers, MA, USA) and an anti-cadherin-6 (K-cadherin) antibody purchased from Abcam (Cambridge, UK).

[6] = target: T1, cadherin6 (CDH6)-fc fusion protein (Homo sapiens, UniProt P55285); assay: Affinity for CDH6 by surface plasmon resonance (SPR); format: binding; settings: CDH6 immobilized on carboxymethyl dextran chip
T1 construct: Fc
Protocol: Comparison was made of the affinity of the peptides of the present invention for CDH6. The binding of GRS and GRS-derived peptides to cadherin6 (CDH6)-fc fusion protein was analyzed by surface plasmon resonance (SPR) using SR7500DC, Reichert Analytical Instrument (Depew NY). CDH6 was immobilized on a [CMDH chip]carboxymethyl dextran sensor chip via a free carboxyl group on the surface thereof, followed by injecting 0.1M 1-ethyl-3-(3-dimethylaminopropyl) carbodiimide hydrochloride and 0.05M N-hydroxysuccinimide at a flow speed of 5 μL/min to give an activated succinimide ester-modified surface. Various concentrations of GRS and GRS-derived peptides were injected at a flow speed of 30 μL/min into phosphate-based saline, after which a mobile-phase buffer was injected at the same flow speed to determine a dissociation rate. Data was analyzed using Software Scrubber 2.0 (Biological Software, Australia).

[7] = tested on: CDH6+/pERK+ cells (H460, HeLa, SN12C) or negative cells (RENCA, MCF7); assay: CDH6-dependency: cell viability of CDH6/pERK positive or negative cells; format: cell-based; settings: GRS-DP 100 nM (FIG. 5a legend: 200 nM); CDH6 positive vs negative cells

T1 sequence (P55285 with tags, fused parts or gaps limits assumed): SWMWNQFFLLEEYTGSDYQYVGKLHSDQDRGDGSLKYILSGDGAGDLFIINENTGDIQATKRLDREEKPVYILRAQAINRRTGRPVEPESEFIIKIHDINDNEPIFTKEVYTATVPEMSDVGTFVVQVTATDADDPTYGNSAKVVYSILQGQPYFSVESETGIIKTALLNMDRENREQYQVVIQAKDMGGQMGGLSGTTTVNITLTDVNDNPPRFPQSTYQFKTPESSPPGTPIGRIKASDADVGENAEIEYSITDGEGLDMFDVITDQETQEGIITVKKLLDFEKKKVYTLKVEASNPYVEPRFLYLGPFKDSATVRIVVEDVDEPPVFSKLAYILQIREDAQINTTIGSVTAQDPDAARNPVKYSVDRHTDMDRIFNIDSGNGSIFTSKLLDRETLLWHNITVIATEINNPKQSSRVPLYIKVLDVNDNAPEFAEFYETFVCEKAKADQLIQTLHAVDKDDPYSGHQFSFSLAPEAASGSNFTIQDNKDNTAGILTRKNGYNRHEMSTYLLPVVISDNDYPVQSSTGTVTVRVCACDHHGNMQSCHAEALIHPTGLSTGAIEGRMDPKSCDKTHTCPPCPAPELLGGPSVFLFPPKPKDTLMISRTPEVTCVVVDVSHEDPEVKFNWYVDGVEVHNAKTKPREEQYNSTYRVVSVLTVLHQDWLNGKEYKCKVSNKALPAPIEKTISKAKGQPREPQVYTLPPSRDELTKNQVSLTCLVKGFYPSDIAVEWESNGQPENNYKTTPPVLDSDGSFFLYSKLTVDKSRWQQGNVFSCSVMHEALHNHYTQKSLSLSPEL

CSCC[C@H](N)C(=O)N[C@@H](Cc1ccc(O)cc1)C(=O)N[C@H](C(=O)N[C@H](C(=O)N[C@@H](Cc1ccccc1)C(=O)N[C@@H](CCC(=O)O)C(=O)N[C@@H](Cc1c[nH]cn1)C(=O)N[C@H](C(=O)N[C@@H](Cc1ccccc1)C(=O)N[C@@H](Cc1c[nH]cn1)C(=O)N[C@H](C(=O)N[C@@H](CCCNC(=N)N)C(=O)N[C@@H](CCC(=O)O)C(=O)NCC(=O)N[C@@H](CC(=O)O)C(=O)N[C@@H](CCC(=O)O)C(=O)N[C@@H](CCC(N)=O)C(=O)N[C@@H](CCCNC(=N)N)C(=O)N[C@H](C(=O)N[C@@H](Cc1ccccc1)C(=O)N[C@@H](Cc1ccccc1)C(=O)N[C@@H](CO)C(=O)N[C@@H](Cc1ccccc1)C(=O)N1CCC[C@H]1C(=O)N[C@@H](C)C(=O)O)[C@@H](C)O)C(C)C)[C@@H](C)O)C(C)C)[C@@H](C)O [GRS-DP-A linear] (H-MYTVFEHTFHVREGDEQRTFFSFPA-OH; N-terminus and C-terminus assumed)
cancer cell apoptotic effect [1]: remarkably

GRS-DP-B: truncated GRS fragment, positions 531-538 on SEQ ID NO: 1, 8 aa (SEQ ID NO: 2) (MYTVFEHT; GRS-DP-B(GRS 531-538))
tumor-specific target ability (fluorescence ROI of excised tumors) [2]: remarkably high tumor-specific target ability
sizes (volumes) and weights of tumors [3]: most remarkably reduced
sizes (volumes) and weights of tumors [4]: most remarkably reduced
cancer cell apoptotic effect [1]: remarkably

GRS-DP-C: truncated GRS fragment, positions 538-552 on SEQ ID NO: 1, 15 aa (SEQ ID NO: 12) (TFHVREGDEQRTFFS; GRS-DP-C (GRS 538-552))
cancer cell apoptotic effect [1]: not detected

MYTVFEHTFHVREGDEQRTFFSFPAVVAPFKCSVLPLSQNQEFMPFVKELSEALTRHGVSHKVDDSSGSI [GRS-DP]
dephosphorylation of pERK [5]: inducing the CDH6-dependent dephosphorylation of pERK
pKd [6]: 7.08
cell viability [7]: reduced the cell viability of CDH6-positive cells only
cancer cell apoptotic effect [1]: remarkably
